# Laboratory results taken from the supplement of paper PMC10307832.
# How the values were obtained:
# Assay in all cases: relative viability (nuclei count vs DMSO), 5 days (fraction); higher = more cells survive
# EKVX = test system: EKVX
# Outline: (§1)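 Dosing by pin tool came one day after lung cancer cell lines were seeded in 1536-well plates, using either one drug or a fixed anchor-drug dose plus five library-drug doses (not always all listed) in √10 steps. After 5 days, nuclei were counted on 4× images. Relative viability is treated-well nuclei count divided by vehicle-well nuclei count, and values are medians of duplicate plates.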
# HARA = test system: HARA
# Outline: as §1
# LK-2 = test system: LK-2
# Outline: as §1
# NCI-H2009 = test system: NCI-H2009
# Outline: as §1
# BEN = test system: BEN
# Outline: as §1
# 201T = test system: 201T
# Outline: as §1
# NCI-H661 = test system: NCI-H661
# Outline: as §1
# ABC-1 = test system: ABC-1
# Outline: as §1
# NCI-H2170 = test system: NCI-H2170
# Outline: as §1
# NCI-H1666 = test system: NCI-H1666
# Outline: as §1
# NCI-H441 = test system: NCI-H441
# Outline: as §1
# HCC-366 = test system: HCC-366
# Outline: as §1
# NCI-H838 = test system: NCI-H838
# Outline: as §1
# NCI-H1650 = test system: NCI-H1650
# Outline: as §1
# COR-L23 = test system: COR-L23
# Outline: as §1
# SW 900 = test system: SW 900
# Outline: as §1
# NCI-H1437 = test system: NCI-H1437
# Outline: as §1
# NCI-H727 = test system: NCI-H727
# Outline: as §1
# CAL-12T = test system: CAL-12T
# Outline: as §1
# NCI-H3122 = test system: NCI-H3122
# Outline: as §1
# PC-14 = test system: PC-14
# Outline: as §1
# COR-L 105 = test system: COR-L 105
# Outline: as §1
# LU99A = test system: LU99A
# Outline: as §1
# NCI-H2023 = test system: NCI-H2023
# Outline: as §1
smiles,measurement,setting,value
C[C@@H]1CN(CC(=O)Nc2ccc3c(c2)Cc2cccc(-c4cc(=O)cc(N5CCOCC5)o4)c2S3)C[C@H](C)O1 + COc1cc2c(Oc3ccc(NC(=O)C4(C(=O)Nc5ccc(F)cc5)CC4)cc3F)ccnc2cc1OCCCN1CCOCC1 [Foretinib] (partner 0.25 µM),relative viability,EKVX; first compound 0.04 µM,0.947
same,relative viability,EKVX; first compound 0.1265 µM,1.16
same,relative viability,EKVX; first compound 0.4 µM,0.927
same,relative viability,EKVX; first compound 4 µM,0.76
same,relative viability,HARA; first compound 0.1265 µM,0.757
same,relative viability,HARA; first compound 0.4 µM,0.891
same,relative viability,HARA; first compound 4 µM,0.879
same,relative viability,LK-2; first compound 0.1265 µM,1.27
same,relative viability,LK-2; first compound 0.4 µM,1.16
same,relative viability,LK-2; first compound 4 µM,1.47
same,relative viability,NCI-H2009; first compound 0.04 µM,1.35
same,relative viability,NCI-H2009; first compound 0.1265 µM,1.18
same,relative viability,NCI-H2009; first compound 0.4 µM,1.15
same,relative viability,NCI-H2009; first compound 4 µM,0.967
same,relative viability,BEN; first compound 0.04 µM,0.615
same,relative viability,BEN; first compound 0.1265 µM,0.552
same,relative viability,BEN; first compound 0.4 µM,0.593
same,relative viability,BEN; first compound 4 µM,0.623
same,relative viability,201T; first compound 0.04 µM,0.93
same,relative viability,201T; first compound 0.1265 µM,1.06
same,relative viability,201T; first compound 4 µM,0.936
same,relative viability,NCI-H661; first compound 0.04 µM,0.776
same,relative viability,NCI-H661; first compound 0.1265 µM,1.04
same,relative viability,NCI-H661; first compound 0.4 µM,0.953
same,relative viability,NCI-H661; first compound 4 µM,0.927
same,relative viability,ABC-1; first compound 0.1265 µM,1.11
same,relative viability,ABC-1; first compound 0.4 µM,1.06
same,relative viability,ABC-1; first compound 4 µM,0.928
same,relative viability,NCI-H2170; first compound 0.04 µM,1.08
same,relative viability,NCI-H2170; first compound 0.1265 µM,0.97
same,relative viability,NCI-H2170; first compound 0.4 µM,0.648
same,relative viability,NCI-H2170; first compound 4 µM,1
same,relative viability,NCI-H1666; first compound 0.04 µM,0.952
same,relative viability,NCI-H1666; first compound 0.1265 µM,0.989
same,relative viability,NCI-H1666; first compound 0.4 µM,1.05
same,relative viability,NCI-H1666; first compound 4 µM,0.812
same,relative viability,NCI-H441; first compound 0.04 µM,0.925
same,relative viability,NCI-H441; first compound 0.1265 µM,0.978
same,relative viability,NCI-H441; first compound 0.4 µM,0.911
same,relative viability,NCI-H441; first compound 4 µM,0.934
same,relative viability,HCC-366; first compound 0.04 µM,0.922
same,relative viability,HCC-366; first compound 0.1265 µM,0.929
same,relative viability,HCC-366; first compound 0.4 µM,1.1
same,relative viability,HCC-366; first compound 4 µM,0.913
same,relative viability,NCI-H838; first compound 0.04 µM,0.871
same,relative viability,NCI-H838; first compound 0.1265 µM,0.952
same,relative viability,NCI-H838; first compound 0.4 µM,0.969
same,relative viability,NCI-H838; first compound 4 µM,0.723
same,relative viability,NCI-H1650; first compound 0.04 µM,1.07
same,relative viability,NCI-H1650; first compound 0.1265 µM,1.14
same,relative viability,NCI-H1650; first compound 0.4 µM,1.04
same,relative viability,NCI-H1650; first compound 4 µM,0.678
same,relative viability,COR-L23; first compound 0.04 µM,0.991
same,relative viability,COR-L23; first compound 0.1265 µM,1.05
same,relative viability,COR-L23; first compound 0.4 µM,1.02
same,relative viability,COR-L23; first compound 4 µM,0.929
same,relative viability,SW 900; first compound 0.04 µM,0.809
same,relative viability,SW 900; first compound 0.1265 µM,0.836
same,relative viability,SW 900; first compound 0.4 µM,0.816
same,relative viability,SW 900; first compound 4 µM,0.782
same,relative viability,NCI-H1437; first compound 0.04 µM,1.25
same,relative viability,NCI-H1437; first compound 0.1265 µM,1.26
same,relative viability,NCI-H1437; first compound 0.4 µM,1.29
same,relative viability,NCI-H1437; first compound 4 µM,0.957
same,relative viability,NCI-H727; first compound 0.04 µM,0.98
same,relative viability,NCI-H727; first compound 0.1265 µM,0.783
same,relative viability,NCI-H727; first compound 0.4 µM,0.826
same,relative viability,NCI-H727; first compound 4 µM,1
same,relative viability,CAL-12T; first compound 0.04 µM,1.13
same,relative viability,CAL-12T; first compound 0.1265 µM,1.06
same,relative viability,CAL-12T; first compound 0.4 µM,1.01
same,relative viability,CAL-12T; first compound 4 µM,0.764
same,relative viability,NCI-H3122; first compound 0.04 µM,1.03
same,relative viability,NCI-H3122; first compound 0.1265 µM,0.902
same,relative viability,NCI-H3122; first compound 0.4 µM,0.961
same,relative viability,NCI-H3122; first compound 4 µM,0.914
same,relative viability,PC-14; first compound 0.04 µM,0.94
same,relative viability,PC-14; first compound 0.1265 µM,0.864
same,relative viability,PC-14; first compound 0.4 µM,0.968
same,relative viability,PC-14; first compound 4 µM,0.902
same,relative viability,COR-L 105; first compound 0.04 µM,1.39
same,relative viability,COR-L 105; first compound 0.1265 µM,0.971
same,relative viability,COR-L 105; first compound 0.4 µM,1.17
same,relative viability,COR-L 105; first compound 4 µM,0.701
same,relative viability,LU99A; first compound 0.04 µM,0.79
same,relative viability,LU99A; first compound 0.1265 µM,0.959
same,relative viability,LU99A; first compound 0.4 µM,1.02
same,relative viability,LU99A; first compound 4 µM,0.854
same,relative viability,NCI-H2023; first compound 0.04 µM,0.732
same,relative viability,NCI-H2023; first compound 0.1265 µM,0.915
same,relative viability,NCI-H2023; first compound 0.4 µM,0.731
same,relative viability,NCI-H2023; first compound 4 µM,0.666
CC(C)Oc1cc(Nc2nc(N[C@@H](C)c3ccc(F)cn3)ncc2Cl)n[nH]1 [AZ23] + CC(=O)c1c(C)c2cnc(Nc3ccc(N4CCNCC4)cn3)nc2n(C2CCCC2)c1=O [Palbociclib] (partner 0.5 µM),relative viability,EKVX; first compound 0.01 µM,0.392
same,relative viability,EKVX; first compound 0.03162 µM,0.414
same,relative viability,EKVX; first compound 0.3162 µM,0.358
same,relative viability,HARA; first compound 0.01 µM,0.254
same,relative viability,HARA; first compound 0.03162 µM,0.156
same,relative viability,HARA; first compound 0.3162 µM,0.213
same,relative viability,LK-2; first compound 0.03162 µM,0.544
same,relative viability,LK-2; first compound 0.3162 µM,0.678
same,relative viability,NCI-H2009; first compound 0.01 µM,0.2
same,relative viability,NCI-H2009; first compound 0.03162 µM,0.185
same,relative viability,NCI-H2009; first compound 0.3162 µM,0.196
same,relative viability,BEN; first compound 0.01 µM,0.475
same,relative viability,BEN; first compound 0.03162 µM,0.458
same,relative viability,BEN; first compound 0.3162 µM,0.455
same,relative viability,201T; first compound 0.01 µM,0.359
same,relative viability,201T; first compound 0.03162 µM,0.38
same,relative viability,201T; first compound 0.3162 µM,0.372
same,relative viability,NCI-H661; first compound 0.01 µM,0.367
same,relative viability,NCI-H661; first compound 0.03162 µM,0.391
same,relative viability,NCI-H661; first compound 0.3162 µM,0.349
same,relative viability,ABC-1; first compound 0.01 µM,0.765
same,relative viability,ABC-1; first compound 0.03162 µM,0.82
same,relative viability,ABC-1; first compound 0.3162 µM,0.694
same,relative viability,NCI-H2170; first compound 0.01 µM,0.451
same,relative viability,NCI-H2170; first compound 0.03162 µM,0.645
same,relative viability,NCI-H2170; first compound 0.3162 µM,0.473
same,relative viability,NCI-H1666; first compound 0.01 µM,0.673
same,relative viability,NCI-H1666; first compound 0.03162 µM,0.647
same,relative viability,NCI-H1666; first compound 0.3162 µM,0.652
same,relative viability,NCI-H441; first compound 0.01 µM,0.199
same,relative viability,NCI-H441; first compound 0.03162 µM,0.198
same,relative viability,NCI-H441; first compound 0.3162 µM,0.202
same,relative viability,HCC-366; first compound 0.01 µM,0.303
same,relative viability,HCC-366; first compound 0.03162 µM,0.513
same,relative viability,HCC-366; first compound 0.3162 µM,0.458
same,relative viability,NCI-H838; first compound 0.01 µM,0.227
same,relative viability,NCI-H838; first compound 0.03162 µM,0.23
same,relative viability,NCI-H838; first compound 0.3162 µM,0.247
same,relative viability,NCI-H1650; first compound 0.01 µM,0.303
same,relative viability,NCI-H1650; first compound 0.03162 µM,0.439
same,relative viability,NCI-H1650; first compound 0.3162 µM,0.378
same,relative viability,COR-L23; first compound 0.01 µM,0.239
same,relative viability,COR-L23; first compound 0.03162 µM,0.301
same,relative viability,COR-L23; first compound 0.3162 µM,0.254
same,relative viability,SW 900; first compound 0.01 µM,0.653
same,relative viability,SW 900; first compound 0.3162 µM,0.501
same,relative viability,NCI-H1437; first compound 0.01 µM,0.304
same,relative viability,NCI-H1437; first compound 0.03162 µM,0.324
same,relative viability,NCI-H1437; first compound 0.3162 µM,0.335
same,relative viability,NCI-H727; first compound 0.01 µM,0.59
same,relative viability,NCI-H727; first compound 0.03162 µM,0.66
same,relative viability,NCI-H727; first compound 0.3162 µM,0.619
same,relative viability,CAL-12T; first compound 0.03162 µM,0.285
same,relative viability,CAL-12T; first compound 0.3162 µM,0.414
same,relative viability,NCI-H3122; first compound 0.01 µM,0.197
same,relative viability,NCI-H3122; first compound 0.03162 µM,0.173
same,relative viability,NCI-H3122; first compound 0.3162 µM,0.23
same,relative viability,PC-14; first compound 0.01 µM,0.492
same,relative viability,PC-14; first compound 0.03162 µM,0.567
same,relative viability,PC-14; first compound 0.3162 µM,0.577
same,relative viability,COR-L 105; first compound 0.01 µM,0.53
same,relative viability,COR-L 105; first compound 0.03162 µM,0.463
same,relative viability,COR-L 105; first compound 0.3162 µM,0.396
same,relative viability,LU99A; first compound 0.01 µM,0.39
same,relative viability,LU99A; first compound 0.03162 µM,0.468
same,relative viability,LU99A; first compound 0.3162 µM,0.371
same,relative viability,NCI-H2023; first compound 0.03162 µM,0.369
same,relative viability,NCI-H2023; first compound 0.3162 µM,0.264
